From ChEMBL document CHEMBL3044627, “Residual and sublethal effects of fenpyroximate and pyridaben on the instantaneous rate of increase of Tetranychus urticae” (Crop Prot, 2006)
Calls of active or inactive are those of the source. The rule behind the calls is not given here.

Tests used:
Type in all cases: functional, organism-based
Tetranychus urticae [1] = assay: Acaricidal activity against Tetranychus urticae (two-spotted spider mite) infested kidney bean leaves assessed as decrease in survival at 2101.3 to 20446.5 ppm applied as spray after 3 days relative to control
Tetranychus urticae [2] = assay: Acaricidal activity against Tetranychus urticae (two-spotted spider mite) infested kidney bean leaves assessed as decrease in egg production applied as spray after 3 to 6 days
Tetranychus urticae [3] = assay: Acaricidal activity against Tetranychus urticae (two-spotted spider mite) infested kidney bean leaves assessed as decrease in reproduction of survivors applied as spray after 3 days
Tetranychus urticae [4] = assay: Acaricidal activity against Tetranychus urticae (two-spotted spider mite) infested kidney bean leaves assessed as decrease in reproduction of survivors applied as spray after 9 days
Tetranychus urticae [5] = assay: Acaricidal activity against Tetranychus urticae (two-spotted spider mite) infested kidney bean leaves assessed as decrease in reproduction of survivors applied as spray after 7 days
Tetranychus urticae [6] = assay: Acaricidal activity against Tetranychus urticae (two-spotted spider mite) infested kidney bean leaves assessed as decrease in reproduction of survivors applied as spray after 5 days
Tetranychus urticae [7] = assay: Acaricidal activity against Tetranychus urticae (two-spotted spider mite) infested kidney bean leaves assessed as decrease in immature production at 2101 ppm applied as spray after 3 to 6 days
Tetranychus urticae [8] = assay: Acaricidal activity against Tetranychus urticae (two-spotted spider mite) infested kidney bean leaves assessed as decrease in reproduction of survivors applied as spray after 1 day
Tetranychus urticae [9] = assay: Acaricidal activity against Tetranychus urticae (two-spotted spider mite) infested kidney bean leaves assessed as decrease in survivors of progeny applied as spray after 1 day
Tetranychus urticae [10] = assay: Acaricidal activity against Tetranychus urticae (two-spotted spider mite) infested kidney bean leaves assessed as decrease in survivors of progeny applied as spray after 3 days
Tetranychus urticae [11] = assay: Acaricidal activity against Tetranychus urticae (two-spotted spider mite) infested kidney bean leaves assessed as decrease in survivors of progeny applied as spray after 9 days
Tetranychus urticae [12] = assay: Acaricidal activity against Tetranychus urticae (two-spotted spider mite) infested kidney bean leaves assessed as decrease in immature production at 6.4 to 46.6 ppm applied as spray after 3 to 6 days
Tetranychus urticae [13] = assay: Acaricidal activity against Tetranychus urticae (two-spotted spider mite) infested kidney bean leaves assessed as decrease in survivors of progeny applied as spray after 7 days
Tetranychus urticae [14] = assay: Acaricidal activity against Tetranychus urticae (two-spotted spider mite) infested kidney bean leaves assessed as decrease in survival at 6.4 to 46.6 ppm applied as spray up to 5 days relative to control
Tetranychus urticae [15] = assay: Acaricidal activity against Tetranychus urticae (two-spotted spider mite) infested kidney bean leaves assessed as decrease in survivors of progeny applied as spray after 5 days
Tetranychus urticae [16] = assay: Acaricidal activity against Tetranychus urticae (two-spotted spider mite) infested kidney bean leaves assessed as decrease in survival at 6.4 to 46.6 ppm applied as spray after 7 to 9 days relative to control

Compound	Activity (Tetranychus urticae [1])	Activity (Tetranychus urticae [2])	EC50 (Tetranychus urticae [3])	EC50 (Tetranychus urticae [4])	EC50 (Tetranychus urticae [5])	EC50 (Tetranychus urticae [6])	Activity (Tetranychus urticae [7])	EC50 (Tetranychus urticae [8])	EC50 (Tetranychus urticae [9])	EC50 (Tetranychus urticae [10])	EC50 (Tetranychus urticae [11])	Activity (Tetranychus urticae [12])	EC50 (Tetranychus urticae [13])	Activity (Tetranychus urticae [14])	EC50 (Tetranychus urticae [15])	Activity (Tetranychus urticae [16])
CC(C)(C)c1ccc(CSc2cnn(C(C)(C)C)c(=O)c2Cl)cc1 [PYRIDABEN]	inactive	Dose-dependent effect	19162.1 ppm	49880.7 ppm	19425.1 ppm	19439.6 ppm	Active	9118.1 ppm								
Cc1nn(C)c(Oc2ccccc2)c1/C=N/OCc1ccc(C(=O)OC(C)(C)C)cc1 [FENPYROXYMATE]			131.1 ppm	253.7 ppm	124 ppm	130.8 ppm		114.6 ppm	116.2 ppm	99 ppm	104 ppm	Active	70.1 ppm	Active	72.7 ppm	inactive
